Laboratory results taken from patent US20130058903A1, “Stem-Cell Material and Method of Use” (priority 2009, published 2013).

Assays:
[1] = tested on: JAK/STAT3 signaling; assay: Extracardiac MSC therapy with WP1066 (echocardiography, ELISA); assay type: in vivo, hamster
Experimental: FIG. 14: WP1066 inhibits JAK/STAT3 signaling and abrogates MSC-mediated cardiac repair. […] Cells were pretreated with WP1066 at the indicated dosages for 2 hours, following which cells were stimulated with MSC-CM for 30 min. Western blot assays were performed to determine STAT3 activation. B: The extracardiac MSC therapy was carried out as described previously (54). The four treatment groups (n=5 per group) were: WP1066, drug vehicle (PEG), MSC plus WP1066, and MSC plus drug vehicle (MSC+PEG). qRT-PCR assays of myocardial ANP and BNP expression (n=4 per group) after one month were presented. ANOVA was performed to assess statistical significance. *P<0.05 vs. PEG.
FIG. 15: WP1066 blocks MSC-mediated improvement in cardiac function. Cardiac function was determined by blind-folded echocardiography after MSC administration. A: Representative M-mode recording for the four animal groups at 4 weeks. B: LVEF at 2 and 4 weeks after MSCs. ANOVA was performed to assess statistical significance. *P<0.05 vs. PEG; †P<0.05 vs. WP1066; #P<0.05 vs. pre-injection.
FIG. 16: Inhibition of JAK/STAT3 signaling abolishes MSC-induced tissue growth factor levels. Soluble fractions of total hamstring extracts (panel A) and plasma samples (panel B) were assayed using rodent-specific HGF and VEGF ELISA kits (n=4 per group). Tissue growth factor concentrations were expressed as ng per mg soluble proteins. ANOVA was performed to assess statistical significance. *P<0.05 vs. PEG; †P<0.05 vs. WP1066; #P<0.05 vs. MSC+WP1066.

[2] = tested on: STAT3; assay: Western blot of STAT3 phosphorylation in C2C12 myocytes; assay type: cell-based; conditions: C2C12 pretreated 2 hours, then MSC-CM for 30 min
Experimental: FIG. 8: Trophic actions of MSCs stimulate JAK/STAT3 signaling in cultured skeletal myocytes. C2C12 myocytes were plated in 6-well plates (10^5 cells per well). After overnight plating, cells were exposed to the indicated conditioned medium. A: Western blot assays of C2C12 cells exposed to MSC-CM for 5 min, 30 min, 6 hr, and 24 hr. B: In situ immunostaining of control medium- and MSC-CM-treated C2C12 cells (30 min incubation) using a p-STAT3 antibody (red) and β-actin antibody (green). Alexa647- and FITC-conjugated secondary antibodies were used. Nuclei were stained with DAPI. C: Western blot assays comparing the effects of porcine MSC-CM, a human embryonic kidney cell line (HEK293) CM, IL-6, IL-11, and LIF on STAT3 phosphorylation in C2C12 myocytes 30 min after treatment. Fifty ng/ml recombinant proteins were used. D: CT for human MSC IL-6-type cytokines. The CT for the house-keeping gene β2-microglobulin and GAPDH are ˜17 and ˜15, respectively.
FIG. 9: gp130/STAT3 signaling stimulates growth factor expression in cultured skeletal myocytes. C2C12 myocytes were treated with […] of a gp130 antibody (R&D Systems; #AF468) or control IgG for one hour at 37° C. The IgG isotype antibody was used as a negative control. Cells were then briefly rinsed and treated with MSC-CM for 30 min to assess STAT3 activation or 3 days for growth factor production. […]

With C[C@H](NC(=O)/C(C#N)=C/c1cccc(Br)n1)c1ccccc1 [WP1066] the “MSC-mediated improvement in cardiac function (LVEF)” value ([1]; 2 and 4 weeks after MSCs) was “blocks”, the “MSC-induced tissue growth factor levels (HGF, VEGF)” value ([1]; hamstring extracts and plasma) was “abolishes” and the MSC-mediated cardiac repair ([1]; myocardial ANP and BNP expression after one month) was “abrogates”. For the same compound, the STAT3 phosphorylation [2] was “Inhibitory effect”.
